Data reported in patent US4954491A, “Method of treatment using 18-cyanoprogesterone derivatives” (Merrell Dow Pharmaceuticals Inc., priority 1989, dated 1990).

How the values were obtained:
[1] = test system: rabbits; settings: Auel et al.; cited from earlier work
[2] = test system: rabbits; settings: Auel et al.; cited from earlier work; remark: listed apart in the source
[3] = test system: enzymes in the synthesis of aldosterone; experiment: inhibition of enzymes in the synthesis of aldosterone (rat adrenal capsule/glomerulosa homogenates, [3H]-DOC substrate); format: biochemical, Sprague-Dawley rats; settings: Conc 10 μM, 1 μM [3H]-DOC, 10-minute assay, 25° C., pH 7.4; for f moles/min/mg: buffer control 246
Experimental: Young male Sprague-Dawley rats were maintained on a sodium-deficient diet for about two weeks prior to use. From these animals, adrenal capsule/glomerulose homogenates were prepared (6 mg/ml) in pH 7.4 assay buffer [MgCl2 8.5 mM, CaCl2 2.7 mM, KCl 3.13 mM, NaCl 7.591 mM, TRIS 50 mM and 0.1% triethylamine]and centrifuged 500xg for 10 minutes.
Assays were conducted in 35 ml glass tubes maintained at 25° C. in a Dubnoff shaker with 95% O2 /5% CO2. The tubes contained the following material: 100 μl of an NADPH^+ generating system, 300 μl of adrenal capsular/glomerulosa cytosol, and 50 μl of test compound or buffer (control). After initial preincubation intervals of 20 minutes, the 10-minute assay was started by the addition of 50 μl of tritium-labelled substrate, i.e., 1 μM [^3 H]-DOC. Reactions were quenched by the addition of 5 ml of ethyl acetate and non-radiolabelled steroids were also added. The samples were extracted twice with 5 ml of ethyl acetate and the solvent evaporated under nitrogen at 30°-40° C.
Residues were redissolved in methanol:water (40:60) with 0.1% triethylamine and high performance liquid chromatography was used to separate products on a Cl8 reverse phase (5 μ ODS-Hypersil) column (4.6×250 mm, Shannon) with a 1 ml/min flow rate using an MeOH:H2 O gradient (solvent A 10/90:solvent B 90/10).
Unchanged substrate and products formed were monitored by UV absorbance at 246 nm and the amount of steroid compound present was quantified by [^3 H]radioactivity. Using this procedure, the following results were observed: […]

Structure (SMILES) | pharmacological activity in the anti-Clauberg test [1] | pharmacological activity in the Clauberg test [2] | % Inhibition [3] | f moles/min/mg [3]
CC(=O)[C@H]1CC[C@H]2[C@@H]3CCC4=CC(=O)CC[C@]4(C)[C@H]3CC[C@]12CC#N [3,20-Dioxopregn-4-ene-18-carbonitrile] | inactive | inactive | 52.5% | 117 f moles/min/mg
CC(=O)[C@H]1CC[C@H]2[C@@H]3CCC4=CC(=O)CC[C@]4(C)[C@H]3[C@@H](O)C[C@]12CC#N [11β-Hydroxy-3,20-dioxopregn-4-ene-18-carbonitrile] |  |  | 33.3% | 164 f moles/min/mg
